For orientation: IC50 means the concentration that inhibits the measured activity by half. High values mean a need for much substance, low ones inhibition by little substance. As usually defined, the pIC50 is the negative decadic logarithm of the IC50, by convention in mol/L. A lower pIC50 goes with a high IC50.

pIC50: −log10 of the molar value. Activity calls are given as the source filed them. The calls are words filed in the database; no cut-off is given here.

The values below come from ChEMBL document CHEMBL5512651, “Synthesis and biological evaluation of 4-imidazolidinone-containing compounds as potent inhibitors of the MDM2/p53 interaction” (Eur J Med Chem, 2024).

Data set [1] deals with MOLM-13. Nature of the data set: Induction of apoptosis in human MOLM-13 cells at 0.375 to 6 uM incubated for 24 hrs by Western blot analysis. The conditions noted are these: dose 0.375-6 µM. The data set is classed as functional, cell-based. For orientation: Immunoblotting shows a protein as a band on a membrane.
Data set [2] is described as follows: Antiproliferative activity against HEK293 cells incubated for 4 days by CCK8 assay. In kind it is toxicity, cell-based. The conditions noted are these: human.
The test system of data set [3] is SW480. Nature of the data set: cells. The conditions noted are these: Homo sapiens, SW480, 96 h.
In data set [4] the test system is MOLM-13. Put plainly: cells. The conditions noted are these: Homo sapiens, MOLM-13, 48 h.
The test system of data set [5] is A549. Nature of the data set: cells. The conditions noted are these: Homo sapiens, A549, 96 h.
In data set [6] the test system is HeLa. Put plainly: cells. The conditions noted are these: Homo sapiens, 96 h.

As for `COc1ccc(C2=N[C@@H](c3ccc(Cl)cc3)[C@@H](c3ccc(Cl)cc3)N2C(=O)N2CCNC(=O)C2)c(OC(C)C)c1` [NUTLIN-3], the outcome in data set [1] was Active. In data set [2], this compound returned an IC50 at 4 days of 26.7 µM. The pIC50 in data set [3] is 4.79; in data set [4] it was 6.70; in data set [5], 5.69; in data set [6], 4.50.
